Experiment [1] in a line: A Cell Based Secondary Assay To Explore Cytotoxicity of Compounds that Sensitize Mycobacterium Tuberculosis to Beta-Lactam Antibiotics. The format is functional.
A short description of experiment [2]: cells. The format is functional, cell-based.
Experiment [3] addresses T1, Trace amine-associated receptor 1 (Homo sapiens, UniProt Q96RJ0).
T1 sequence (Q96RJ0 whole entry): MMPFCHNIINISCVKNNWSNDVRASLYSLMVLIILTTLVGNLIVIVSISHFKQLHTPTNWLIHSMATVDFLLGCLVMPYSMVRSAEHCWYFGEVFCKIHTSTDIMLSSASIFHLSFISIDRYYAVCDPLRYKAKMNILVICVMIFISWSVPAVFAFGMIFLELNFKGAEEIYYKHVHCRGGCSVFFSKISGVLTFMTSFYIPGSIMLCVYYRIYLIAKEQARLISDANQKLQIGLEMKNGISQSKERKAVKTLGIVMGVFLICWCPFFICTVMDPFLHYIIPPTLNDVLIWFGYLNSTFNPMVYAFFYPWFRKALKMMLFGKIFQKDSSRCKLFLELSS
The experiment is described as follows: Fluorescence-based cell-based high throughput dose response assay to identify agonists of the human trace amine associated receptor 1 (TAAR1). The format is functional.

The target of experiment [4] is T1, Trace amine-associated receptor 1. The experiment is described as follows: Counterscreen for agonists of the human trace amine associated receptor 1 (hTAAR1): Fluorescence-based cell-based high throughput dose response assay to identify hTAAR1 agonist that also desensitize TAAR1 receptor response. The format is functional. (The purpose of a counterscreen is to sort out artefacts and off-target activity.)

The nature of experiment [5]: cells. The format is functional, cell-based. The source holds these as a separate data set.
Experiment [6] addresses Cytochrome P450 2D6 (Homo sapiens, UniProt P10635).
Experiment [7] deals with T2, High affinity choline transporter 1 (Homo sapiens, UniProt Q9GZV3).
T2 sequence (Q9GZV3 whole entry): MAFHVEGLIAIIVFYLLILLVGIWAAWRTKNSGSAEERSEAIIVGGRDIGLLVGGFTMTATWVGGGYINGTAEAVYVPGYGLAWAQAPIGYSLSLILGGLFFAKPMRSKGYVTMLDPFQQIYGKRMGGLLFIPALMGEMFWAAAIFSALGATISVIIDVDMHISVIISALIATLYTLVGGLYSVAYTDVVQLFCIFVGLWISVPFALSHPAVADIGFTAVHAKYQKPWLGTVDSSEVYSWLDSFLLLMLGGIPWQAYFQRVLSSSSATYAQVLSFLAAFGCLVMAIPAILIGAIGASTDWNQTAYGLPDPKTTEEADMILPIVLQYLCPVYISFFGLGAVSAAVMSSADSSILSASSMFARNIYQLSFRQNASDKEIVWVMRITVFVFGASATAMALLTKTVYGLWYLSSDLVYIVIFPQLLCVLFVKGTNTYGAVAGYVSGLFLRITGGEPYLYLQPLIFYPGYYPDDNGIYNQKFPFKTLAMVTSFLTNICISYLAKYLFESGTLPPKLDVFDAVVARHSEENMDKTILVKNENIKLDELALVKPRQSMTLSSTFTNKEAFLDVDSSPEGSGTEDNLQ
The experiment is described as follows: human choline transporter blockers, potency – cell-based, 5-point CRC, membrane potential dye, dose response (AID 504840). The format is functional.

Experiment [8] can be described thus: cells.
Experiment [9] addresses T3, Leucine aminopeptidase (Plasmodium falciparum 3D7, UniProt Q8IL11).
T3 sequence (Q8IL11 whole entry): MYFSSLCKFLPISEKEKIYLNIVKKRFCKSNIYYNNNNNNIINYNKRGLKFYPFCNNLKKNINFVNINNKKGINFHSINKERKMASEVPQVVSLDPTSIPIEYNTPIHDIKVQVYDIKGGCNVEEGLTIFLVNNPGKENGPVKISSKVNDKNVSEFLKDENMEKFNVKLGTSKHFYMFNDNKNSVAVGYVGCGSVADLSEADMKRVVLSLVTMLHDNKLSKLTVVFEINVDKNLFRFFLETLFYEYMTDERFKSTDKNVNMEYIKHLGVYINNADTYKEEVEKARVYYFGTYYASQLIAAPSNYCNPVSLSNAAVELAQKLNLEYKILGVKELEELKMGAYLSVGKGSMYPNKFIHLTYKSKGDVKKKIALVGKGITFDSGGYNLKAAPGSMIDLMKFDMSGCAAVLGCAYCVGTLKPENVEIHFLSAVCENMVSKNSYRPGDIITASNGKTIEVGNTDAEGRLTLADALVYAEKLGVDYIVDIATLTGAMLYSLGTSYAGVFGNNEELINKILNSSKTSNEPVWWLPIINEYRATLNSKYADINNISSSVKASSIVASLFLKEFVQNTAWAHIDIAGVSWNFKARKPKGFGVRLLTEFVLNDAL
The experiment is described as follows: P. falciparum M17LAP inhibitors, primary screen, biochemical, fluorogenic H-Leu-NHMec substrate, 1536-well (AID 1619). The format is functional.

Experiment [10] deals with T4, Aspartyl aminopeptidase (Plasmodium falciparum 3D7, UniProt Q8I2J3).
T4 sequence (Q8I2J3 whole entry): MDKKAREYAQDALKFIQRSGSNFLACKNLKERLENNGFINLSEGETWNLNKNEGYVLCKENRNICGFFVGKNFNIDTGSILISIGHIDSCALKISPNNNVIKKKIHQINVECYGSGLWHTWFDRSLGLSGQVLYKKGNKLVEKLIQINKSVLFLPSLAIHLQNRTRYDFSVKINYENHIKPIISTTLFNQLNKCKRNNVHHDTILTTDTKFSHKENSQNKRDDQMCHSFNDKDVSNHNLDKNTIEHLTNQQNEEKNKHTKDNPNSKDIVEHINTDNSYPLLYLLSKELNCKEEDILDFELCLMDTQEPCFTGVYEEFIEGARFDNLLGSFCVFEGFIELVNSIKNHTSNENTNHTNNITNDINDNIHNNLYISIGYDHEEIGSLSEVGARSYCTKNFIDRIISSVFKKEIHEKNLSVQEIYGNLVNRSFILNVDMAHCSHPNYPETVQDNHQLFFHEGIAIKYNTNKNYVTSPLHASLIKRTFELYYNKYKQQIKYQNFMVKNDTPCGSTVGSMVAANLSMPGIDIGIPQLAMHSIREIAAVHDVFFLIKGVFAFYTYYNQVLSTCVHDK
The experiment is described as follows: Counterscreen for inhibitors of M1 and M17 aminopeptidases: QFRET-based biochemical high throughput dose response assay for inhibitors of the Plasmodium falciparum M18 Aspartyl Aminopeptidase (PFM18AAP). [Related PubChem assays: 1619 (Screening assay (M17LAP inhibitors).), 1445 (Screening assay (M1AAP inhibitors).)].

The target of experiment [11] is Procathepsin L (Homo sapiens, UniProt P07711). The experiment is described as follows: CTSL1 protease inhibition – biochemical, QFRET, 1536-well, counter-screen for M1/M17 aminopeptidase inhibitor project, dose response (AID 2214).
Chain of Procathepsin L (P07711 whole entry): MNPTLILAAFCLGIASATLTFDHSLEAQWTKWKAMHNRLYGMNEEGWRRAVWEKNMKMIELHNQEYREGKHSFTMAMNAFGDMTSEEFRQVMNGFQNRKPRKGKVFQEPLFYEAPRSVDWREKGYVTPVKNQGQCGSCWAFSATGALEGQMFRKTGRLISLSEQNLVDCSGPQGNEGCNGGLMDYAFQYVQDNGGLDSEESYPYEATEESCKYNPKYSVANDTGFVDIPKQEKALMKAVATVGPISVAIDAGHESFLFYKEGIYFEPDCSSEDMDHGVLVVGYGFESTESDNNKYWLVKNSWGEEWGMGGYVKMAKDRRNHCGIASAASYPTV
Experiment [12] concerns the target Genome polyprotein (dengue virus type 2, UniProt P29990). The experiment is described as follows: flavivirus cap methylation enzyme inhibition – biochemical, confirmation dose response, primary screen (AID 588689). The format is functional.
The nature of experiment [13]: viability of uninfected HEp-2 cells – cell-based, HTS, cytotoxicity control for RSV inhibitor project, dose response (AID 2410). The format is functional. Particulars: human respiratory syncytial virus.
Experiment [14] has as its target T5, Aminopeptidase N (Plasmodium falciparum FcB1/Columbia, UniProt O96935).
T5 sequence (O96935 whole entry): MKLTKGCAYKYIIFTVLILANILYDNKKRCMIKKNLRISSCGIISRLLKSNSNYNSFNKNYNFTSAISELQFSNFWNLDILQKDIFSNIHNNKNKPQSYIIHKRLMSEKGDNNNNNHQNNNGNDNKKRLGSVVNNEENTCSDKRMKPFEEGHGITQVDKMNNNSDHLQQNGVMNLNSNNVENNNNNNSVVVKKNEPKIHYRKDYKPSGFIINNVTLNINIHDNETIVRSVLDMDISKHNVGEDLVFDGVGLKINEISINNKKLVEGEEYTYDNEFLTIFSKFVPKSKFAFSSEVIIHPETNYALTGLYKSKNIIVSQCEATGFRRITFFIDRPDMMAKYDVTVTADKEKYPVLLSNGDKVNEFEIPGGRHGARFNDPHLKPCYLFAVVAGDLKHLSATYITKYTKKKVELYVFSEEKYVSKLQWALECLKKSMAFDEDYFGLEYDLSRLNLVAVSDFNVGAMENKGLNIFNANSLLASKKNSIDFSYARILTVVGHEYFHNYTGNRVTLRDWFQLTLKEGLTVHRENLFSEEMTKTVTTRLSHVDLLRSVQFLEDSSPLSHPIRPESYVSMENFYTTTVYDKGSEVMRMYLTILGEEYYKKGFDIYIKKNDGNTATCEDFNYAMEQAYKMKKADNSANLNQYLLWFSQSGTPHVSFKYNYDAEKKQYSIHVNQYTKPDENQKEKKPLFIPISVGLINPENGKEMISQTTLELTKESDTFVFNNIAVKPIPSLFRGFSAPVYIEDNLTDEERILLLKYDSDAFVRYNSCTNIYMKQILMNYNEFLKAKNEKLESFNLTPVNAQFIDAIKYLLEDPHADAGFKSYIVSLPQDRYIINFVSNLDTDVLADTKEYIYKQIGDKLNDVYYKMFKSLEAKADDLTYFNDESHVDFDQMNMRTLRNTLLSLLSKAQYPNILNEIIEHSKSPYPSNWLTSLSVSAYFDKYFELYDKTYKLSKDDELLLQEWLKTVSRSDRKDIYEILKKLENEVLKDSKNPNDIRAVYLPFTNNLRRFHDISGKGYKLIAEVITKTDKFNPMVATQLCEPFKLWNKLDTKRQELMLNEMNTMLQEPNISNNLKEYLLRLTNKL
Description: malaria alanyl aminopeptidase activity blockers – biochemical, fluorogenic H-Leu-NHMec substrate, 1536-well (AID 1445). On the set-up: species or system Plasmodium falciparum 3D7, 3D7.

Experiment [15] has as its target Peroxisome proliferator-activated receptor gamma/Nuclear receptor coactivator 2 (Homo sapiens, UniProt P37231). The format is functional.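 Further: agonist potency for raising coactivator recruitment to the receptor.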
Experiment [16] deals with Peroxisome proliferator-activated receptor gamma/Nuclear receptor coactivator 1 (Homo sapiens, UniProt P37231). The format is functional.
Chain of Peroxisome proliferator-activated receptor gamma/Nuclear receptor coactivator 1 (P37231 whole entry): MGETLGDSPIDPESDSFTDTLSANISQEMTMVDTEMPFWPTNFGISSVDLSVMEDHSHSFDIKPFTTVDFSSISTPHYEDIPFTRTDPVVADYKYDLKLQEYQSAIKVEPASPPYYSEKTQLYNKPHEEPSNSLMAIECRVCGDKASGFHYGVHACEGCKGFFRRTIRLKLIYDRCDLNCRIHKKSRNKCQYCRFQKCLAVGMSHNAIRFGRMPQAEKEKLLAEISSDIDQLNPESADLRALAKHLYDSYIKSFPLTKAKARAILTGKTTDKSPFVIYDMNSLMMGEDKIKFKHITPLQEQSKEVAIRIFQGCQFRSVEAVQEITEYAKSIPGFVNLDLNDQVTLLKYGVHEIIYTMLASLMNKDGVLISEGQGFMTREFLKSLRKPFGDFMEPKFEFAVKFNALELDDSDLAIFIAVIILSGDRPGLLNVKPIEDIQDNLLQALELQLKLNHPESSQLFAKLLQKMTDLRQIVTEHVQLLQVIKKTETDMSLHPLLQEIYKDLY
Chain of Peroxisome proliferator-activated receptor gamma/Nuclear receptor coactivator 1 (Q15788 whole entry, further chain): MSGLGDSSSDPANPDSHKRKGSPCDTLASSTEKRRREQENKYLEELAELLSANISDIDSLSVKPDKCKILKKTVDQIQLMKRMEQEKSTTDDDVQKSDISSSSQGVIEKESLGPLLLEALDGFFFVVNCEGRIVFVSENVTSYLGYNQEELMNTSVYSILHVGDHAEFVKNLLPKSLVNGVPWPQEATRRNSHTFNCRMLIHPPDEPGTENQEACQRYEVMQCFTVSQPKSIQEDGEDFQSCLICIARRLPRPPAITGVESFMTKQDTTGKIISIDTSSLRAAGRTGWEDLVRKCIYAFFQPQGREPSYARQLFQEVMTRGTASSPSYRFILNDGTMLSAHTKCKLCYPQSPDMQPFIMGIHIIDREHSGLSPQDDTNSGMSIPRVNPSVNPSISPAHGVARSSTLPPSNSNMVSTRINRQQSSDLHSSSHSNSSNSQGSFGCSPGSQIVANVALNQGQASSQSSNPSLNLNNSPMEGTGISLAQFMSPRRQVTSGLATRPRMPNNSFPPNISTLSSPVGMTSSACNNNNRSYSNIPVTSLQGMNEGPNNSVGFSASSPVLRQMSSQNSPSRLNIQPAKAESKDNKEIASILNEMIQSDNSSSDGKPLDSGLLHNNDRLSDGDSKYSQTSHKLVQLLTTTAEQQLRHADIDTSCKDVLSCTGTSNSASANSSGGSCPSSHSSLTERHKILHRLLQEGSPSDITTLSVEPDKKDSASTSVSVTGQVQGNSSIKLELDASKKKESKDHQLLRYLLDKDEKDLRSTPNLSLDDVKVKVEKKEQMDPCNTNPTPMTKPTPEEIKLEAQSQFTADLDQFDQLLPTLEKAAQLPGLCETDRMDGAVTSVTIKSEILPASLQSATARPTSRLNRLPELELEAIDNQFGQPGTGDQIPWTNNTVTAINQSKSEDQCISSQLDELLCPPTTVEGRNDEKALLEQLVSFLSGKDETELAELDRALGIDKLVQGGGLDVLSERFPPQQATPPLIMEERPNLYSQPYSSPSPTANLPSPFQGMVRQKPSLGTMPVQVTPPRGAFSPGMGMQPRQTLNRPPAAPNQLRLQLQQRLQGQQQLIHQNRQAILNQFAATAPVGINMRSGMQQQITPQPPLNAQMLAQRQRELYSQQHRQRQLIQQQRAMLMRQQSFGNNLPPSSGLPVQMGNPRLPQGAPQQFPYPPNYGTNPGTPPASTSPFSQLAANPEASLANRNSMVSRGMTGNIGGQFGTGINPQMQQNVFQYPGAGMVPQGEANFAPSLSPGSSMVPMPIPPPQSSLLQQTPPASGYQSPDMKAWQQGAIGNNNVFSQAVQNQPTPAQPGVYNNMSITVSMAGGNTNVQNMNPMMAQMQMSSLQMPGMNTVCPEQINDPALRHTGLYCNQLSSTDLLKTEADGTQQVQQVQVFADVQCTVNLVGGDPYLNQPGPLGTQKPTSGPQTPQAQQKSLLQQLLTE
Experiment [17] concerns the target Peroxisome proliferator-activated receptor gamma/Nuclear receptor coactivator 3 (Homo sapiens, UniProt P37231). The format is functional.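 Further: agonist potency for raising coactivator recruitment to the receptor.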
In experiment [18] the target is Serine/threonine-protein phosphatase PP1-alpha catalytic subunit (Homo sapiens, UniProt P62136). The experiment is described as follows: inhibition of protein phosphatase 1 activity – biochemical, fluorescence, dose response (AID 2403).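 Further: phosphatase turnover of OMFP into fluorescent 3-O-methylfluorescein.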
Chain of Serine/threonine-protein phosphatase PP1-alpha catalytic subunit (P62136 whole entry): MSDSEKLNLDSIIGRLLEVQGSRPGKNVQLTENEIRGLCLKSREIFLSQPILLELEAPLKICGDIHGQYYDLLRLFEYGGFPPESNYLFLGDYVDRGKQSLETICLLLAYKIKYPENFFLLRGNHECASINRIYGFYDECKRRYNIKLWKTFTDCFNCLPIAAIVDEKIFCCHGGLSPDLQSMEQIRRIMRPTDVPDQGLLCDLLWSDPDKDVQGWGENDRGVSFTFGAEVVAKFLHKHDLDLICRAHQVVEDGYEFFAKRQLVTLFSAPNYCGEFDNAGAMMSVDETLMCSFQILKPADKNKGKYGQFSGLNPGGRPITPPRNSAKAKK
Experiment [19] has as its target T6, Serine/threonine-protein phosphatase (Homo sapiens, UniProt Q9BPW0).
T6 sequence (Q9BPW0 whole entry): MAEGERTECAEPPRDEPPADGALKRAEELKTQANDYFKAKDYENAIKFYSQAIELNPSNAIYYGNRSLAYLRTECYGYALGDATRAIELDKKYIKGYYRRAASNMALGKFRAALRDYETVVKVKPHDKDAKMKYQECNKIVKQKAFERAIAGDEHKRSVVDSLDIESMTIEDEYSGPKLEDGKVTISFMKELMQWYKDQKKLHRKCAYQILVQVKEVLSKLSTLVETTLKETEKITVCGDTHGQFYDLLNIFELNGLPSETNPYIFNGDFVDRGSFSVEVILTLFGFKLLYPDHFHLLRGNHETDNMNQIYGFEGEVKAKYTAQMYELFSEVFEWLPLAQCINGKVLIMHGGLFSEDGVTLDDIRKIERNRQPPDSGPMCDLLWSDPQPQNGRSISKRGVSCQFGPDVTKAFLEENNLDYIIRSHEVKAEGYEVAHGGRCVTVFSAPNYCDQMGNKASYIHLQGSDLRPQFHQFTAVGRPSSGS
Description: Counterscreen for inhibitors of PP1: fluorescence-based biochemical high throughput dose response assay to identify inhibitors of Protein Phosphatase 5 (PP5). [Related pubchem assays: 2034 (Summary (PP5 inhibitors)), 1987 (PP5 inhibitors in singlate), 2235 (PP1 inhibitors in singlate)].

Structures are written as SMILES. Calls of active or inactive are those of the source.
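Wherever AC50 is given: CYP2D6 member of a cytochrome P450 panel assay.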

Chain of Peroxisome proliferator-activated receptor gamma/Nuclear receptor coactivator 3 (P37231 whole entry): as the sequence (P37231 whole entry) above
Chain of Peroxisome proliferator-activated receptor gamma/Nuclear receptor coactivator 3 (Q9Y6Q9 whole entry, further chain): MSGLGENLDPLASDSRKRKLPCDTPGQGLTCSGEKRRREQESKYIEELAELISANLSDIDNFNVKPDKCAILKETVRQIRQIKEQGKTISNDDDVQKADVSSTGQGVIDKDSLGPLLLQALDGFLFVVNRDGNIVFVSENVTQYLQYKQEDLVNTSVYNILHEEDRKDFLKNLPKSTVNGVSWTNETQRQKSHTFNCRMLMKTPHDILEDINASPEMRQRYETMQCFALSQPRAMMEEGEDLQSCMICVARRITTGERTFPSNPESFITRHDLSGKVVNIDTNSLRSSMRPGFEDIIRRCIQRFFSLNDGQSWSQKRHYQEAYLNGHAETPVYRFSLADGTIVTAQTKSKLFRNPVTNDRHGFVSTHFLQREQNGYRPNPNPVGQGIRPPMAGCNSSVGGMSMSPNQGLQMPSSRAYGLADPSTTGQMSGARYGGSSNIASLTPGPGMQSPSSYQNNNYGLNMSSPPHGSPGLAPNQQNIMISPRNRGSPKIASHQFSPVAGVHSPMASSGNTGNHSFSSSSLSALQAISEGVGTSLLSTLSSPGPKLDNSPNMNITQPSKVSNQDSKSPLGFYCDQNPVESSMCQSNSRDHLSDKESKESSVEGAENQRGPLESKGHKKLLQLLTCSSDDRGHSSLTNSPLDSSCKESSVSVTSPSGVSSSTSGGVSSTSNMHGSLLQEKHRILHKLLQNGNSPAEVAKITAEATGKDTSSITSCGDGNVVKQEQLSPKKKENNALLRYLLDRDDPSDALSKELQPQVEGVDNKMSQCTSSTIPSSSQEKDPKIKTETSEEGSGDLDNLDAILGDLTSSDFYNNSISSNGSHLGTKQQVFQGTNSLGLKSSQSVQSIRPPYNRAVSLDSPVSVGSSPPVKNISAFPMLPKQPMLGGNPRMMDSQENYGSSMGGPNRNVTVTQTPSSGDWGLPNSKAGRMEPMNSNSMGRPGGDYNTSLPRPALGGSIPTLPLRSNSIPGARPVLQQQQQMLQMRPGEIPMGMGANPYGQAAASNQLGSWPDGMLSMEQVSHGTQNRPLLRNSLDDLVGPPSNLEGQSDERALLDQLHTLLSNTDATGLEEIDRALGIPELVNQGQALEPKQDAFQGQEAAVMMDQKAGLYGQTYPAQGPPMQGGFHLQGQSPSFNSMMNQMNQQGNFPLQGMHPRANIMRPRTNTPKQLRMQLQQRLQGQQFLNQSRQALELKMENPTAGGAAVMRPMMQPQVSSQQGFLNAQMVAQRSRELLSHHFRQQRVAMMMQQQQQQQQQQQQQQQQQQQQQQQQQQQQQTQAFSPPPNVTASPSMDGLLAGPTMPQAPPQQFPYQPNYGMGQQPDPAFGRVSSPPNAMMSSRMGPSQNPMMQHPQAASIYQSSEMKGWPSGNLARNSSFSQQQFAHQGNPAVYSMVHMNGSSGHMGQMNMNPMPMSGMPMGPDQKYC
Chain of Cytochrome P450 2D6 (P10635 whole entry): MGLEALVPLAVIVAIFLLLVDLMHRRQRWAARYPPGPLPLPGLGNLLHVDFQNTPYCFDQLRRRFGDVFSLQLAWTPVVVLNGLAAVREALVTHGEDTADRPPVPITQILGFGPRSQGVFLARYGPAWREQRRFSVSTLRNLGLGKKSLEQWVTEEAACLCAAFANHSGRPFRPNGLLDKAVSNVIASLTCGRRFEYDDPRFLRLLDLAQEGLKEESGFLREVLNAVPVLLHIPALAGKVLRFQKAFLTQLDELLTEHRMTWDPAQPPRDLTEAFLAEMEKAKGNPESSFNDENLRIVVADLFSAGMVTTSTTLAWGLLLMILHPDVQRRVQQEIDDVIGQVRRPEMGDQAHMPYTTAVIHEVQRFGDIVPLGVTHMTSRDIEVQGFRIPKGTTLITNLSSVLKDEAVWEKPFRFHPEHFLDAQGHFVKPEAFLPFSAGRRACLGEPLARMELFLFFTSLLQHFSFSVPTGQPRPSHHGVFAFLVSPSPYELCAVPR

By CC50 is commonly meant the concentration at which the toxic effect on the cells reaches its halfway point. In the case of `Cc1cc(F)ccc1NCC(=O)Nc1ccc(Br)cc1C`, the CC50 in [1] was > 40 µM (active).

Usually IC50 stands for the concentration that gives 50% inhibition. Broadly, the EC50 is the concentration at which the effect is half-maximal. For `CCn1cc(C(=O)O)c(=O)c2cc(F)c(N/N=C/c3ccccc3)cc21`, in [1], the CC50 is 34.1 µM (active). Further, the IC50 is > 29.9 µM (inactive) in experiment [2] and 1.68 µM (active) in experiment [4]. Also, the EC50 is 19.7 µM (inactive) in experiment [3] and > 29.9 µM (inactive) in experiment [5].

As a reminder, the AC50 is the concentration at which the activity in the assay is half-maximal. `COc1ccc(CN(CCC#N)C(=S)NC(=O)c2ccccc2)cc1`: the CC50 in [1] is 39 µM (active). In addition, the AC50 in [6] was 25.1 µM (inconclusive).

Consider `COCCN(C(=O)CSc1nnc(-c2ccc(C)c(C)c2)o1)c1c(N)n(CC(C)C)c(=O)[nH]c1=O`, for which the IC50 in experiment [7] was 14.8 µM (active); in [8], 13.3 µM (active).

Consider `CCOC(=O)c1c(NC(=O)C2C3C=CC(C3)C2C(=O)O)sc2c1CCC(CC)C2` (stereo unspecified), for which the IC50 in experiment [9] is 7.67 µM (active); in experiment [10], > 73.5 µM (not active); in experiment [11], > 59.6 µM (not active); in [7], 1.91 µM (active); in experiment [12] it was 42.4 µM (active).

Take `CCc1ccc(NC(=O)C2CC=CCC2C(=O)O)cc1` (stereo unspecified): the values for the IC50 in [9], in [10] and in [11] were 3.48 µM (active), > 73.5 µM (not active) and > 59.6 µM (not active), respectively.

Regarding `Cc1cc(C)c(-n2c(C)cc(/C=C3/NC(=O)NC3=O)c2C)c(C)c1`, in experiment [13], the CC50 was 11.2 µM (active). Also, in experiment [8], the IC50 was 2.83 µM (active).

As to `COc1ccccc1-c1nc2ccccc2c(=O)n1NC(=O)c1cccs1`, the IC50 in experiment [10] is > 73.5 µM (not active); in experiment [14], 15.8 µM (active); in experiment [11], > 59.6 µM (not active).

With `Cc1sc2nc3c(SC(C)C(=O)O)cc(C(=O)c4ccccc4O)cn3c(=O)c2c1C` (stereo unspecified), the CC50 in experiment [13] was 42.7 µM (active). Moreover, the EC50 in experiment [15] is recorded as 25.1 µM (not active); in experiment [16], 14.7 µM (not active); in experiment [17], 25.9 µM (not active). The values for the IC50 in experiment [14] and in experiment [8] were 57.8 µM (active) and 41.5 µM (active), respectively.

Regarding `O=C1Nc2ccccc2N2CCCC12` (stereo unspecified), the IC50 in experiment [18] is > 67 µM (not active); in experiment [19] it was > 2.48 µM (active).

These data come from ChEMBL document CHEMBL1201862, “PubChem BioAssay data set” (2004).
